In paper PMC11768370, “Etodolac Single Dose Metabolic Profile Elucidation: Pharmacokinetics and Adverse Events in Healthy Volunteers” (Pharmaceuticals, 2025):

Experiments:
plasma metabolites = assay: Untargeted plasma metabolomic profile pre-dose (T0) vs post-dose (Tmax), UPLC-QToF; format: in vivo, human; conditions: healthy volunteers, single dose 500 mg
Experimental: Samples were collected at two times: (i) baseline samples (time 0 h), termed the pre-dose group, and (ii) samples at maximum drug concentration (Cmax), termed the post-dose group. Samples were randomized, and 25 μL of each was collected to form a pooled sample for quality control (QC). An aliquot of plasma (200 μL) was extracted by adding cold methanol (400 μL) for protein precipitation. The samples were then vortexed for 30 s and centrifuged at 12,879× g for 10 min at 4 °C. Finally, the supernatant (400 μL) was collected and dried over a stream of nitrogen gas (N2). Samples were resuspended with 200 µL of acetonitrile (ACN)/water (H2O) (1:1 v/v). Sample extraction and analysis were randomized to reduce instrumental and biological bias. QC samples were analyzed every 10 samples to check for variations in extraction and system stability.
The analysis was adapted and performed on an ACQUITY® FTN H Class (Waters, Newcastle, UK) liquid chromatography (UPLC) coupled to a XEVO-G2XS (QToF) quadrupole time-of-flight mass spectrometer (UPLC-QToF) (Waters, Manchester, UK) equipped with an electrospray ionization (ESI) source operated in the positive and negative ionization mode, separately. An ACQUITY UPLC ® CSH C18 column (2.1 mm × 100 mm × 1.7 µm, Waters, Newcastle, UK) was employed as a stationary phase. […]

[1] = Adverse events monitoring by clinical evaluation and laboratory tests after single dose
[2] = 37 healthy volunteers, single dose 500 mg
[3] = Adverse event: Alanine Aminotransferase Increased
[4] = Adverse event: Alkaline Phosphatase Increased
[5] = Adverse event: Altered Erythrogram
[6] = Adverse event: Altered Leukogram
[7] = Adverse event: Decreased Platelet Count
[8] = Adverse event: Fastting Glucose Increased
[9] = Adverse event: Increased Total Bilirubin and Fractions
[10] = Adverse event: Total Cholesterol Increased

With `CCc1cccc2c3c([nH]c12)C(CC)(CC(=O)O)OCC3` (centres unmarked) [Etodolac] the “6-ketoprostaglandin E1 relative abundance at Tmax compared to T0” value (plasma metabolites) was “increases twist time in relative abundance”, the “15-epi-lipoxin A4 relative abundance at Tmax compared to T0” value (plasma metabolites) was “increases in relative abundance” and the “adverse events: intensity (all events)” value [1, 2] was “mild”. For the same compound, the “adverse events: predictability (all events)” value [1, 2] was “not expected”, the “adverse events recorded (total)” value ([1]; 37 healthy volunteers, single dose 500 mg, results outside reference values) was 19 and the “Intensity (Mild / Moderate / Severe / Lethal)” value [1, 3] was “Mild”. For the same compound, the “Predictability (Expected / Not Expected)” value [1, 3] was “Not Expected”, the Events count ([1]; Adverse event: Alanine Aminotransferase Increased, 37 healthy volunteers, single dose 500 mg) was 3 and the “Intensity (Mild / Moderate / Severe / Lethal)” value [1, 4] was “Mild”. The “Predictability (Expected / Not Expected)” value [1, 4] was “Not Expected”, the Events count ([1]; Adverse event: Alkaline Phosphatase Increased, 37 healthy volunteers, single dose 500 mg) was 1 and the “Intensity (Mild / Moderate / Severe / Lethal)” value [1, 5] was “Mild”. For the same compound, the “Predictability (Expected / Not Expected)” value [1, 5] was “Not Expected”, the Events count ([1]; Adverse event: Altered Erythrogram, 37 healthy volunteers, single dose 500 mg) was 3 and the “Intensity (Mild / Moderate / Severe / Lethal)” value [1, 6] was “Mild”. For the same compound, the “Predictability (Expected / Not Expected)” value [1, 6] was “Not Expected”, the Events count ([1]; Adverse event: Altered Leukogram, 37 healthy volunteers, single dose 500 mg) was 3 and the “Intensity (Mild / Moderate / Severe / Lethal)” value [1, 7] was “Mild”. The “Predictability (Expected / Not Expected)” value [1, 7] was “Not Expected”, the Events count ([1]; Adverse event: Decreased Platelet Count, 37 healthy volunteers, single dose 500 mg) was 1 and the “Intensity (Mild / Moderate / Severe / Lethal)” value [1, 8] was “Mild”. For the same compound, the “Predictability (Expected / Not Expected)” value [1, 8] was “Not Expected”, the Events count ([1]; Adverse event: Fastting Glucose Increased, 37 healthy volunteers, single dose 500 mg) was 3 and the “Intensity (Mild / Moderate / Severe / Lethal)” value [1, 9] was “Mild”. The “Predictability (Expected / Not Expected)” value [1, 9] was “Not Expected”, the Events count ([1]; Adverse event: Increased Total Bilirubin and Fractions, 37 healthy volunteers, single dose 500 mg) was 1 and the “Intensity (Mild / Moderate / Severe / Lethal)” value ([1]; Adverse event: Leukocyturia) was “Mild”. For the same compound, the “Predictability (Expected / Not Expected)” value ([1]; Adverse event: Leukocyturia) was “Not Expected”, the Events count ([1]; Adverse event: Leukocyturia, 37 healthy volunteers, single dose 500 mg) was 1 and the “Intensity (Mild / Moderate / Severe / Lethal)” value [1, 10] was “Mild”. The “Predictability (Expected / Not Expected)” value [1, 10] was “Not Expected” and the Events count ([1]; Adverse event: Total Cholesterol Increased, 37 healthy volunteers, single dose 500 mg) was 3.
